Test results taken from the supplement of paper PMC12463676, “Small-molecule dissolution of stress granules by redox modulation benefits ALS models” (Nature Chemical Biology, 2025).

Tests used:
[1] = compound: NC(=O)CCCCC1CCSS1 [lipoamide]; test: thermal stability z-score vs DMSO; higher = more thermally stabilized by treatment; settings: HeLa, lipoamide concentration 100 µM
Description: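 Cellular thermal proteome profiling in HeLa cells. Cells were treated with 100 µM lipoamide for 1 h, with or without 1 mM arsenate for a further 1 h, then heated to ten temperatures (37-66.3 °C), and soluble protein was quantified by TMT mass spectrometry relative to 0.1% DMSO controls. The thermal stability score (sum of log2 fold changes minus the abundance score) was transformed to a z-score; mean of n = 3 experiments.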

[2] = compound: O=[As]([O-])(O)O.[K+] [potassium arsenate]; test: as above; settings: HeLa; arsenate concentration 1 mM
Description: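 Cellular thermal proteome profiling in HeLa cells treated with 1 mM arsenate for 1 h (DMSO pretreatment), heated to ten temperatures (37-66.3 °C). Soluble protein was quantified by TMT mass spectrometry relative to DMSO controls; the thermal stability score was transformed to a z-score; mean of n = 3 experiments.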

[3] = arsenate co-treatment: 1 mM arsenate 1 h
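Further: each temperature applied for 3 min, abundance score taken as mean log2 fold change at the two lowest temperatures, z-score obtained by mean subtraction and division by SD.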

Sequence of UniProt Q13257 (Q13257 whole entry): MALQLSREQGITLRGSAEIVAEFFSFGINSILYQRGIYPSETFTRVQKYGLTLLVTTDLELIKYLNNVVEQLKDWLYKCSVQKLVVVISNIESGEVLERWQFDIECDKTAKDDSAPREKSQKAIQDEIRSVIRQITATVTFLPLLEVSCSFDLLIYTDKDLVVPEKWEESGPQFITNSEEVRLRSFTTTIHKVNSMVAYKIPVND
Sequence of UniProt Q66K74 (Q66K74 whole entry): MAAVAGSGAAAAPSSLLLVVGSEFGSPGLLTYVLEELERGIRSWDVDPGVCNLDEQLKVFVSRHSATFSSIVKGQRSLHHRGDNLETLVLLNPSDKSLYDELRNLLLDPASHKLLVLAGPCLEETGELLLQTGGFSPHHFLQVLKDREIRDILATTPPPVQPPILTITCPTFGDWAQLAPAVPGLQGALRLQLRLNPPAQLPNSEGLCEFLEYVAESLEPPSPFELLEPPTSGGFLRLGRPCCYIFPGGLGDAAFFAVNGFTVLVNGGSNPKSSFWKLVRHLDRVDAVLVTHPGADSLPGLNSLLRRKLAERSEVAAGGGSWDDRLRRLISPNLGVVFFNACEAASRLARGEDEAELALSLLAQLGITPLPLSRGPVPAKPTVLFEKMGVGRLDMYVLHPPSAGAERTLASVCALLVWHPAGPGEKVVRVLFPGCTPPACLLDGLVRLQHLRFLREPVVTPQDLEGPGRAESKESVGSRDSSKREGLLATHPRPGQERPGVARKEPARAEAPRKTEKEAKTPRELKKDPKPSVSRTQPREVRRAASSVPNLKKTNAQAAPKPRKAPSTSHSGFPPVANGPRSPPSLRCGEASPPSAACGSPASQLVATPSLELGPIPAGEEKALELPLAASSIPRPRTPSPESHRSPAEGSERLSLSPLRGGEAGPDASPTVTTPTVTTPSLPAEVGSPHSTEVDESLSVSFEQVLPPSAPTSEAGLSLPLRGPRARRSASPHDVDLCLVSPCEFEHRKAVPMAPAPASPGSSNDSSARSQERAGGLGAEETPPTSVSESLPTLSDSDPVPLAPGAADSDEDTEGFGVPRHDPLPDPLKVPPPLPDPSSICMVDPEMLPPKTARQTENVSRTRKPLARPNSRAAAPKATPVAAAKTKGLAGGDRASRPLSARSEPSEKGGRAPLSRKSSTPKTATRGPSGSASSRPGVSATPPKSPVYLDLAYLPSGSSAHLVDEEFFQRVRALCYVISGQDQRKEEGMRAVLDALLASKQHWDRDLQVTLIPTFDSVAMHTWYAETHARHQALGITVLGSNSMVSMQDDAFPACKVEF
Sequence of UniProt Q15691 (Q15691 whole entry): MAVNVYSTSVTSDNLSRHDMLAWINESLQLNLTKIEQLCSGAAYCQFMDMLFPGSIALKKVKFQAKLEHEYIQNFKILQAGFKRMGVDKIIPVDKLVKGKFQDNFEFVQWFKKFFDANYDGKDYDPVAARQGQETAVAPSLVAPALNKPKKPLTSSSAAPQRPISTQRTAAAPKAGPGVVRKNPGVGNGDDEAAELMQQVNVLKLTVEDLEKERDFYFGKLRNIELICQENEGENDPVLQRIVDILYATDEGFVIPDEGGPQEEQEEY
Sequence of UniProt Q969Z3 (Q969Z3 whole entry): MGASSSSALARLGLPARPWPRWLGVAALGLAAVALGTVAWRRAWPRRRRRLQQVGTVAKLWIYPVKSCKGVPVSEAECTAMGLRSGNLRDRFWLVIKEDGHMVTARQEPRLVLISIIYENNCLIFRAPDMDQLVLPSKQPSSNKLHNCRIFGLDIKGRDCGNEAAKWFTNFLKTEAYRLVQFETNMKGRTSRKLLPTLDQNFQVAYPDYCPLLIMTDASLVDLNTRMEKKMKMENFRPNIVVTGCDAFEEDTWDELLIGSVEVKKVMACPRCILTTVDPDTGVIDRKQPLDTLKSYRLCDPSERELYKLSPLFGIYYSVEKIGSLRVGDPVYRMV
Sequence of UniProt O14733 (O14733 whole entry): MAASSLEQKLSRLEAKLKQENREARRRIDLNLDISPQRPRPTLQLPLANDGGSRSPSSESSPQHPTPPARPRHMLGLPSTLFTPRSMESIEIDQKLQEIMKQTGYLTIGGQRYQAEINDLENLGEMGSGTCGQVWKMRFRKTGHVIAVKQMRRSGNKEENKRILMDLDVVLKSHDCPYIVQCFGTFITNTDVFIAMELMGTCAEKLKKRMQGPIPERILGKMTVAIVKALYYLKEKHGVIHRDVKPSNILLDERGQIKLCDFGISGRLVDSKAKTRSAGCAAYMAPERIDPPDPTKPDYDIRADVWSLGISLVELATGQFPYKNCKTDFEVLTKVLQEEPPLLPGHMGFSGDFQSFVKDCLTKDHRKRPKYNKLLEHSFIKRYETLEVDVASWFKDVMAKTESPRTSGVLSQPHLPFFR
Sequence of UniProt P27816 (P27816 whole entry): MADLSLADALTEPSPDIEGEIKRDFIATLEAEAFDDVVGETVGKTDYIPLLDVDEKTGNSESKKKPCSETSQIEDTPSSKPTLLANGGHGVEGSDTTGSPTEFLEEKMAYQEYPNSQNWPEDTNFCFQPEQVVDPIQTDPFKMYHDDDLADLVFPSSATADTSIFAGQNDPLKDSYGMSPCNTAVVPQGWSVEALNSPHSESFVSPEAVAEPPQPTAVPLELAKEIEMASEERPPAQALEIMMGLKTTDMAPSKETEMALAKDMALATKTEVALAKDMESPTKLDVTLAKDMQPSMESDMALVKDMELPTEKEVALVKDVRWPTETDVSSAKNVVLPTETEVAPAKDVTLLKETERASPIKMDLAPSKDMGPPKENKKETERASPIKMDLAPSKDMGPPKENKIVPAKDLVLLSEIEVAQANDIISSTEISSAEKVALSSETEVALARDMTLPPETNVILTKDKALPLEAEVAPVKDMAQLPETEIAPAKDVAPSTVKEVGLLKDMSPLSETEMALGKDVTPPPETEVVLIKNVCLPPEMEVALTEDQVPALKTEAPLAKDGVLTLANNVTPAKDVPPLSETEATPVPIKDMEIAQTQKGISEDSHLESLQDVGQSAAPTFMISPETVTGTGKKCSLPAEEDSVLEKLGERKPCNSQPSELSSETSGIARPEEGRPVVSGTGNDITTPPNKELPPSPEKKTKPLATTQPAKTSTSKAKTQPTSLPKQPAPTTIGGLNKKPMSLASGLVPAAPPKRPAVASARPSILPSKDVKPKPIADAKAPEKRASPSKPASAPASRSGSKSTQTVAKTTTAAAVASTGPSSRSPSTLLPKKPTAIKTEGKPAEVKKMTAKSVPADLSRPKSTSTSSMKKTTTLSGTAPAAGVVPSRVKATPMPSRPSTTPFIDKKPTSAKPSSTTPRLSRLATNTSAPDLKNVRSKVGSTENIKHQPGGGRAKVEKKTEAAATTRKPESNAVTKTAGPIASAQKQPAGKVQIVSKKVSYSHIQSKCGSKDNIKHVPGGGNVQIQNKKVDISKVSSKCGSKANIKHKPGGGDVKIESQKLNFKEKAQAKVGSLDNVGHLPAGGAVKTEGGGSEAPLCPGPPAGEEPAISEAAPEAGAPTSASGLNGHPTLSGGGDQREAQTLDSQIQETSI
Sequence of UniProt P49006 (P49006 whole entry): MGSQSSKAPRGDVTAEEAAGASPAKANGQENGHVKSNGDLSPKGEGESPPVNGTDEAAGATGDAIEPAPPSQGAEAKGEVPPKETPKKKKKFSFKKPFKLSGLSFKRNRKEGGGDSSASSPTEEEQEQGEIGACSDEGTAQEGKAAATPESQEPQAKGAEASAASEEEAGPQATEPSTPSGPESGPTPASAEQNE
Sequence of UniProt O95382 (O95382 whole entry): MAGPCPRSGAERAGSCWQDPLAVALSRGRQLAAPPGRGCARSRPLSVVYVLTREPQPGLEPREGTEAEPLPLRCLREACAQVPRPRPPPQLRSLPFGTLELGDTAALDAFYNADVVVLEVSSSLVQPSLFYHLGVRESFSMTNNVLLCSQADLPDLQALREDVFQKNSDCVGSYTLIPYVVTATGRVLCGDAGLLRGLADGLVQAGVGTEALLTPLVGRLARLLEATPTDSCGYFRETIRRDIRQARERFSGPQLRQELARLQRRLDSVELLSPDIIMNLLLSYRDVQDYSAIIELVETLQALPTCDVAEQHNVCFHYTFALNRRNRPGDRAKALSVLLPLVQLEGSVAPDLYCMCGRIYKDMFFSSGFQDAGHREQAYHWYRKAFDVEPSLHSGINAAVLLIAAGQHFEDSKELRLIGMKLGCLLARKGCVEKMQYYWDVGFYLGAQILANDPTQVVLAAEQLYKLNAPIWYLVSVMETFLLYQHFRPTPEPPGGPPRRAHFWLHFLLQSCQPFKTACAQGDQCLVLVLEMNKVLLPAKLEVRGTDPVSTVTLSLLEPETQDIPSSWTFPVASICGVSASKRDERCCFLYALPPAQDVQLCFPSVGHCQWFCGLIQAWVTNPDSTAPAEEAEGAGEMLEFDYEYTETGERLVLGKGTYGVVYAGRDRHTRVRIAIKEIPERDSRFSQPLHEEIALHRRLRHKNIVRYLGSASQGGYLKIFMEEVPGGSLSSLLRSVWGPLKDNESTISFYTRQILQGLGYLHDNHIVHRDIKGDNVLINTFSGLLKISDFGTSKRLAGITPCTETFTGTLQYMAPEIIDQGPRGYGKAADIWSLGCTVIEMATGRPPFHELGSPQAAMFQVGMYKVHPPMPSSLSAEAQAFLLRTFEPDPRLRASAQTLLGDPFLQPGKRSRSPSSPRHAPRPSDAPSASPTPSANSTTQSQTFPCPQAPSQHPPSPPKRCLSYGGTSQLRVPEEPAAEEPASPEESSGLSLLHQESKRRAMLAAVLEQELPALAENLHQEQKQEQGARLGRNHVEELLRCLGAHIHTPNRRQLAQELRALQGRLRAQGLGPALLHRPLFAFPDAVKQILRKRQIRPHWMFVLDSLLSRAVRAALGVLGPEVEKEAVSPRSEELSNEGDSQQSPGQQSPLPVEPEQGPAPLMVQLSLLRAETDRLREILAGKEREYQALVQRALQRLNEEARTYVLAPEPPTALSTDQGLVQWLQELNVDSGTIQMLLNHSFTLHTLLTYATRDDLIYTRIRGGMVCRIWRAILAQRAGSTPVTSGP
Sequence of UniProt Q9NQG1 (Q9NQG1 whole entry): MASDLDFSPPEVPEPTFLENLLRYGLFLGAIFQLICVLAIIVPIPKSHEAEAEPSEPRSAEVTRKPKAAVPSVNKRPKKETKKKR

Target	thermal stability z-score [1, 3]	thermal stability z-score ([1]; arsenate co-treatment: none)	thermal stability z-score [2]
LZTR1 (UniProt Q8N653)	-0.12	0.0373	-0.137
M6PR (UniProt P20645)	0.401	-0.0131	0.167
MACF1	-0.0421	-0.0441	-0.308
MACROD1 (UniProt Q9BQ69)	1.61	0.262	1.33
MAD1L1 (UniProt Q9Y6D9)	2.13	0.887	1.62
MAD2L1 (UniProt Q13257)	-0.109	-0.147	1.96
MAD2L2 (UniProt Q9UI95)	-0.137	0.037	-0.211
MADD (UniProt Q8WXG6)	0.198	1.4	1.3
MAEA (UniProt Q7L5Y9)	-0.402	-0.993	-0.343
MAF1 (UniProt Q9H063)	-0.0772	-0.00412	-0.373
MAGEA1 (UniProt P43355)	0.195	0.0019	1.03
MAGED2 (UniProt Q9UNF1)	-0.0801	0.24	0.741
MAGOH|MAGOHB	0.0953	0.171	0.0412
MAGT1 (UniProt Q9H0U3)	-3.45	-2.9	0.251
MALSU1 (UniProt Q96EH3)	-1.47	-1.5	-1.01
MALT1 (UniProt Q9UDY8)	-0.539	0.249	0.37
MAML1 (UniProt Q92585)	0.141	0.017	1.03
MAMLD1 (UniProt Q13495)	0.0249	0.146	0.345
MAN1A1 (UniProt P33908)	0.547	0.362	0.104
MAN1A2 (UniProt O60476)	-0.432	-0.498	-0.352
MAN1B1 (UniProt Q9UKM7)	-0.361	-0.286	0.103
MAN2A1 (UniProt Q16706)	-0.502	-0.428	-0.264
MAN2B1 (UniProt O00754)	-1.18	-0.63	-0.312
MANBA (UniProt O00462)	-1.33	-1.4	-0.726

Target	thermal stability z-score [1, 3]	thermal stability z-score ([1]; arsenate co-treatment: none)	thermal stability z-score [2]
MANBAL (UniProt Q9NQG1)	1.06	1.59	0.0493
MANEAL (UniProt Q5VSG8)	-0.276	0.109	0.736
MANF (UniProt P55145)	0.0932	-0.0959	0.0791
MAP1LC3B2|MAP1LC3B	0.0751	0.888	0.485
MAP1S (UniProt Q66K74)	-0.223	-0.342	-0.318
MAP2K1 (UniProt Q02750)	-0.382	-0.187	-0.118
MAP2K2 (UniProt P36507)	-0.441	-0.022	0.0169
MAP2K3 (UniProt P46734)	-0.4	-0.138	0.235
MAP2K4 (UniProt P45985)	-0.37	0.139	-0.444
MAP2K6 (UniProt P52564)	-0.0718	0.061	-0.021
MAP2K7 (UniProt O14733)	-0.121	0.341	0.54
MAP3K2 (UniProt Q9Y2U5)	0.15	-0.461	-0.71
MAP3K6 (UniProt O95382)	0.0331	-0.0259	-0.0305
MAP3K7 (UniProt O43318)	0.164	0.123	0.066
MAP4 (UniProt P27816)	0.0996	0.243	-0.384
MAP4K3 (UniProt Q8IVH8)	0.23	-0.0792	0.139
MAP4K4 (UniProt O95819)	-0.599	-0.0959	0.303
MAP4K5 (UniProt Q9Y4K4)	-0.212	0.00139	0.00285
MAP7 (UniProt Q14244)	0.478	-0.183	-0.779
MAP7D1 (UniProt Q3KQU3)	0.172	-0.0726	-0.702
MAP7D3 (UniProt Q8IWC1)	-0.18	-0.509	-1.36
MAPK1 (UniProt P28482)	0.246	-0.0239	-0.175
MAPK3 (UniProt P27361)	-0.115	-0.114	-0.214
MAPK7 (UniProt Q13164)	0.0307	0.141	0.334

Target	thermal stability z-score [1, 3]	thermal stability z-score ([1]; arsenate co-treatment: none)	thermal stability z-score [2]
MAPK8 (UniProt P45983)	0.24	0.00773	-0.00139
MAPK9 (UniProt P45984)	0.00773	-0.817	-0.98
MAPK14 (UniProt Q16539)	0.87	-0.0481	0.772
MAPKAP1 (UniProt Q9BPZ7)	0.13	-0.0501	0.0626
MAPKAPK2 (UniProt P49137)	0.451	0.459	0.48
MAPKAPK3 (UniProt Q16644)	-0.203	-0.362	-0.508
MAPRE1 (UniProt Q15691)	0.796	0.705	0.154
MAPRE2 (UniProt Q15555)	-0.858	0.732	1.11
MAPRE3 (UniProt Q9UPY8)	0.142	-0.216	-0.102
MARC1 (UniProt Q5VT66)	0.204	0.806	1.12
MARC2 (UniProt Q969Z3)	0.235	0.311	0.168
MARCH5 (UniProt Q9NX47)	0.842	-0.0503	0.411
MARCH6 (UniProt O60337)	-0.245	-0.44	-0.855
MARCKS (UniProt P29966)	0.62	0.121	0.943
MARCKSL1 (UniProt P49006)	0.667	0.788	0.248
MARK1 (UniProt Q9P0L2)	-0.126	-0.153	0.249
MARK2 (UniProt Q7KZI7)	-0.0322	0.0698	0.0503
MARK3 (UniProt P27448)	-0.0834	-0.0843	-0.0953
MARS2 (UniProt Q96GW9)	0.482	0.957	0.992
MARS (UniProt P56192)	-1.37	-0.604	0.22
MARVELD2 (UniProt Q8N4S9)	-0.452	0.477	-0.292
MAST2 (UniProt Q6P0Q8)	-0.0733	-0.0383	0.00193
MASTL (UniProt Q96GX5)	-0.0186	-0.102	-0.0433
